Experimental data as given in ChEMBL document CHEMBL5154753, “Discovery and Structural Optimization of Toddacoumalone Derivatives as Novel PDE4 Inhibitors for the Topical Treatment of Psoriasis” (J Med Chem, 2022).
Converted amounts (≈) assume the structure as drawn. The source made the active and inactive calls. The calls are words filed in the database; no cut-off is given here.

Experiments:
[1] = Aqueous solubility of compound by HPLC analysis; type: physicochemical; details: buffer
[2] = target: High affinity cAMP-specific and IBMX-insensitive 3',5'-cyclic phosphodiesterase 8A (Homo sapiens, UniProt O60658); assay: Inhibition of PDE8A1 (480 to 820 residues) (unknown origin) expressed in Escherichia coli BL21 using [3H-GMP] or [3H-AMP] as substrate incubated for 15 mins by liquid scintillation counting method
[3] = Stability in rat liver microsomes assessed as half life measure upto 45 mins in presence of NADPH by LC-MS analysis; type: ADME, Microsome
Mus musculus [4] = species: Mus musculus; assay: Anti-psoriatic activity in IMQ-induced BALB/c psoriasis mouse model assessed as change in skin thickness at 62.5 mg as 2% ointment, TOP daily for 7 days by hematoxylin and eosin staining based confocal laser scanning microscopy; type: functional, organism-based; details: time 7.0 day
[5] = Toxicity in IMQ-induced BALB/c psoriasis mouse model assessed as body weight loss at 62.5 mg as 4% ointment, TOP daily and measured upto 7 days; details: in vivo, topical_or_ocular, 168 h, time < 7 day
[6] = AUC (0 to t) in ICR mouse at 30 mg/kg, po measured upto 24 hrs by LC-MS/MS analysis; type: ADME, organism-based; parameters: time < 24 hrs, dose 30 mg/kg, route po; details: in vivo
[7] = target: Voltage-gated inwardly rectifying potassium channel KCNH2 (Homo sapiens, UniProt Q12809); assay: Inhibition of hERG by Q patch automated patch-clamp method; type: toxicity
Chain of Voltage-gated inwardly rectifying potassium channel KCNH2 (Q12809 whole entry): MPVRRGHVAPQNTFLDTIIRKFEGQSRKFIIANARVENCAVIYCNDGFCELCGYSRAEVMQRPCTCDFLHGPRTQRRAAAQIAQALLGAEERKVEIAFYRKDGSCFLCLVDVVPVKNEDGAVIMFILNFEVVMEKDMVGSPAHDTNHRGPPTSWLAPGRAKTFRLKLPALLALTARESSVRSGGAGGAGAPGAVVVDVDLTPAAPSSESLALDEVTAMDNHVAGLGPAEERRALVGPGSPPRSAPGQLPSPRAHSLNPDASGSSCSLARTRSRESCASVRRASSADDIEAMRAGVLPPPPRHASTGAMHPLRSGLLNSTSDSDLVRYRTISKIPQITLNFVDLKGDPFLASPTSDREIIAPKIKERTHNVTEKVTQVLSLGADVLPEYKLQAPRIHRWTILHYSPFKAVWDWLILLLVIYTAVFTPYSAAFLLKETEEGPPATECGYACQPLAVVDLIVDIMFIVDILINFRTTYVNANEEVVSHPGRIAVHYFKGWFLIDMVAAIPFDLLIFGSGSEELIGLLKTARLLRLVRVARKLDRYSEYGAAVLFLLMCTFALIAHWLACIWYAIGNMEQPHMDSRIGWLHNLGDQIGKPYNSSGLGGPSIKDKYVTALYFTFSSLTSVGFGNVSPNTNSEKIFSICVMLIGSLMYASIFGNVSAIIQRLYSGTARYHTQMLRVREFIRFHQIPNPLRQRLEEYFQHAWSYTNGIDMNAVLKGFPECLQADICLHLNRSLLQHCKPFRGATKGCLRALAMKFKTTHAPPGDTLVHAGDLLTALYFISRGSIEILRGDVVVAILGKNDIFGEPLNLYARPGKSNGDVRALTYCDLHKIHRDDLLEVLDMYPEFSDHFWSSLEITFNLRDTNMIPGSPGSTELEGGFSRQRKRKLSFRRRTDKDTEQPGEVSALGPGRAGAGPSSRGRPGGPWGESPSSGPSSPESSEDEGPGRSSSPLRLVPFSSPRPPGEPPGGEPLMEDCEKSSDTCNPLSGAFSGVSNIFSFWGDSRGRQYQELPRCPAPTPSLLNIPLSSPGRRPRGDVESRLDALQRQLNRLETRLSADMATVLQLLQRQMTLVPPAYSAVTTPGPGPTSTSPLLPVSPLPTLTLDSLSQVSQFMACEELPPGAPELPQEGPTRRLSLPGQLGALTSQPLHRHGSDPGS

Mus musculus [8] = species: Mus musculus; assay: Anti-psoriatic activity in IMQ-induced BALB/c psoriasis mouse model assessed as reduction in dermal cell proliferation at 62.5 mg as 2% ointment, TOP daily for 7 days by Ki67+ expression based immunohistochemistry analysis; type: functional, organism-based; details: time 7.0 day
Mus musculus [9] = species: Mus musculus; assay: Anti-psoriatic activity in IMQ-induced BALB/c psoriasis mouse model assessed as reduction IMQ- induced immune response by measuring spleen weight loss at 62.5 mg as 4% ointment, TOP daily and measured upto 7 days; type: functional, organism-based; details: time <= 7.0 day
[10] = target: High affinity 3',5'-cyclic-AMP phosphodiesterase 7A (Homo sapiens, UniProt Q13946); assay: Inhibition of PDE7A1 (130 to 482 residues) (unknown origin) expressed in Escherichia coli BL21 using [3H-GMP] or [3H-AMP] as substrate incubated for 15 mins by liquid scintillation counting method
Chain of High affinity 3',5'-cyclic-AMP phosphodiesterase 7A (Q13946 whole entry, the tested form may be a part): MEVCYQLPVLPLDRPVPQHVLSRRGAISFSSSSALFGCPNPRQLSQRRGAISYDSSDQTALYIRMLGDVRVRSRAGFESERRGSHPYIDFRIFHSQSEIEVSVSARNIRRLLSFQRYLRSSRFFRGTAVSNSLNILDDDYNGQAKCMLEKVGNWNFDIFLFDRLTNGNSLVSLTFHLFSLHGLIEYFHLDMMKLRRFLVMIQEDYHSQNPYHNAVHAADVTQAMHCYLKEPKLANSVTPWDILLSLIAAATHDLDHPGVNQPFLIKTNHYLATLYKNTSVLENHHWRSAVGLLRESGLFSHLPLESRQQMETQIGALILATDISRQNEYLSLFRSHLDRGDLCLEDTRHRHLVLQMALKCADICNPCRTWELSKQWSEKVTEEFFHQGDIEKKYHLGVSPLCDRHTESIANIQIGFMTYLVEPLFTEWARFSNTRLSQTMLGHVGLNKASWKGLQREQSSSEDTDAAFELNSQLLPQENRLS

[11] = Half life in ICR mouse at 30 mg/kg, po measured upto 24 hrs by LC-MS/MS analysis; type: ADME, organism-based; details: in vivo
Mus musculus [12] = species: Mus musculus; assay: Anti-psoriatic activity in IMQ-induced BALB/c psoriasis mouse model assessed as reduction in erythema score at 62.5 mg as 4% ointment, TOP daily and measured upto 7 days; type: functional, organism-based; details: time <= 7.0 day, DDE = dose-dependent effect
Mus musculus [13] = assay: Anti-psoriatic activity in IMQ-induced BALB/c psoriasis mouse model assessed as reduction in scales score at 10 mg/kg, po for 7 days; type: functional, organism-based; details: time 7.0 day
[14] = C0 in ICR mouse at 10 mg/kg, iv measured upto 24 hrs by LC-MS/MS analysis; type: ADME, organism-based; details: in vivo
Mus musculus [15] = species: Mus musculus; assay: Anti-psoriatic activity in IMQ-induced BALB/c psoriasis mouse model assessed as reduction IMQ- induced immune response by measuring spleen weight loss at 62.5 mg as 2% ointment, TOP daily and measured upto 7 days; type: functional, organism-based; details: time <= 7.0 day
Mus musculus [16] = species: Mus musculus; assay: Anti-psoriatic activity in IMQ-induced BALB/c psoriasis mouse model assessed as reduction in erythema score at 62.5 mg as 2% ointment, TOP daily and measured upto 7 days; type: functional, organism-based; details: time <= 7.0 day, DDE = dose-dependent effect
[17] = target: High affinity cGMP-specific 3',5'-cyclic phosphodiesterase 9A (Homo sapiens, UniProt O76083); assay: Inhibition of PDE9A2 (181 to 506 residues) (unknown origin) expressed in Escherichia coli BL21 using [3H-GMP] or [3H-AMP] as substrate incubated for 15 mins by liquid scintillation counting method
Chain of High affinity cGMP-specific 3',5'-cyclic phosphodiesterase 9A (O76083 whole entry, the tested form may be a part): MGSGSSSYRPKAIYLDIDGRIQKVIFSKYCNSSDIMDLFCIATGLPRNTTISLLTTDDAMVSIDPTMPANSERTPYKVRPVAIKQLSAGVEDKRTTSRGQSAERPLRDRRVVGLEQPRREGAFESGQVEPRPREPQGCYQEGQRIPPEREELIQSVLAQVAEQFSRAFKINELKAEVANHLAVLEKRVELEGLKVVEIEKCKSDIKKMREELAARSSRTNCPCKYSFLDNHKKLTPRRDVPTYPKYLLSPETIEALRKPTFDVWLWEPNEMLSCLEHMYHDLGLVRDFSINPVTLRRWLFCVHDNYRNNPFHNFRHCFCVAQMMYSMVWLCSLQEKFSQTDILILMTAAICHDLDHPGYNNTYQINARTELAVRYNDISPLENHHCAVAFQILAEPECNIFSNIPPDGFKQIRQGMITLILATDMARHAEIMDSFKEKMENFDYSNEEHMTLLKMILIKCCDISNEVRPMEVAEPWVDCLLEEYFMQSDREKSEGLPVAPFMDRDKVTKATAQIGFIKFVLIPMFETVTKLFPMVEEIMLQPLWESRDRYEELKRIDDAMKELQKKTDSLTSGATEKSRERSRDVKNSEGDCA

[18] = Oral bioavailability in ICR mouse at 30 mg/kg measured upto 24 hrs by LC-MS/MS analysis; type: ADME, organism-based; details: in vivo
Mus musculus [19] = assay: Anti-psoriatic activity in IMQ-induced BALB/c psoriasis mouse model assessed as reduction in erythema score at 10 mg/kg, po for 7 days; type: functional, organism-based; details: time 7.0 day
RAW264.7 [20] = assay: Anti-inflammatory activity against mouse RAW264.7 cells assessed as decrease in LPS-induced IL-6 mRNA levels incubated for 4 hrs followed LPS-stimulation for 24 hrs by SYBR green staining based qRT-PCR analysis; type: functional, cell-based; details: time 28.0 hrs, DDE = dose-dependent effect
[21] = target: cGMP-inhibited 3',5'-cyclic phosphodiesterase 3A (Homo sapiens, UniProt Q14432); assay: Inhibition of PDE3A (679 to 1087 residues) (unknown origin) expressed in Escherichia coli BL21 using [3H-GMP] or [3H-AMP] as substrate incubated for 15 mins by liquid scintillation counting method
Chain of cGMP-inhibited 3',5'-cyclic phosphodiesterase 3A (Q14432 whole entry, the tested form may be a part): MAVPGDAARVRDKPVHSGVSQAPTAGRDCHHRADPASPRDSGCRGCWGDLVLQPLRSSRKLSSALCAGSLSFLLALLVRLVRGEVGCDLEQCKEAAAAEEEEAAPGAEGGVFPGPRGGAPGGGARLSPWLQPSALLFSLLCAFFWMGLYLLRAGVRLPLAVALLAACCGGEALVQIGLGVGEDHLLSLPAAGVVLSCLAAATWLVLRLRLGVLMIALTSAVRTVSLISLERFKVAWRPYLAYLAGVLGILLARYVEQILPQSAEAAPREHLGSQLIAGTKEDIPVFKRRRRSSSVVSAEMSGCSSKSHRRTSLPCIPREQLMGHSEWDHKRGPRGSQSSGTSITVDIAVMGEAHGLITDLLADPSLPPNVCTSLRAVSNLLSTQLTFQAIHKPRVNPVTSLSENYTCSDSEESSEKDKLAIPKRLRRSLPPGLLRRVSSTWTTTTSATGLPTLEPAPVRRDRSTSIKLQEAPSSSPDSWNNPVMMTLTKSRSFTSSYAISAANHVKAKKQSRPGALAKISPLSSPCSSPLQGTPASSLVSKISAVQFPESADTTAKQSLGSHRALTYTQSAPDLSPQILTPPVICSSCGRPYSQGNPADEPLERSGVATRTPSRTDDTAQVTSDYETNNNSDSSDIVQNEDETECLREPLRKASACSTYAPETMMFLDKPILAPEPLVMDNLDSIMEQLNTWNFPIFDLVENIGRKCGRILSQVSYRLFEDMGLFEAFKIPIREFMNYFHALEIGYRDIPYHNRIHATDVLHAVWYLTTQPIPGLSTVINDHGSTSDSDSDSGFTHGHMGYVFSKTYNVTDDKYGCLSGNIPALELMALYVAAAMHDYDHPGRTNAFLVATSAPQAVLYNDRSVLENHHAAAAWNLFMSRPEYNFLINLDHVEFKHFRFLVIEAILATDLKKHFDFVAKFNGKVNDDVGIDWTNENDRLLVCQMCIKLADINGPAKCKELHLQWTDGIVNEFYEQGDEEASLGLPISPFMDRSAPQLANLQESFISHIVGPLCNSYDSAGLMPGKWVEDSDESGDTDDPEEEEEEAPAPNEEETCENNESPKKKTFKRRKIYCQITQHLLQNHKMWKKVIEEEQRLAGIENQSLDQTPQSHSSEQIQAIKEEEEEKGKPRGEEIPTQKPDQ

[22] = target: Dual specificity calcium/calmodulin-dependent 3',5'-cyclic nucleotide phosphodiesterase 1B (Homo sapiens, UniProt Q01064); assay: Inhibition of PDE1B (10 to 487 residues) (unknown origin) expressed in Escherichia coli BL21 using [3H-GMP] or [3H-AMP] as substrate incubated for 15 mins by liquid scintillation counting method
Chain of Dual specificity calcium/calmodulin-dependent 3',5'-cyclic nucleotide phosphodiesterase 1B (Q01064 whole entry, the tested form may be a part): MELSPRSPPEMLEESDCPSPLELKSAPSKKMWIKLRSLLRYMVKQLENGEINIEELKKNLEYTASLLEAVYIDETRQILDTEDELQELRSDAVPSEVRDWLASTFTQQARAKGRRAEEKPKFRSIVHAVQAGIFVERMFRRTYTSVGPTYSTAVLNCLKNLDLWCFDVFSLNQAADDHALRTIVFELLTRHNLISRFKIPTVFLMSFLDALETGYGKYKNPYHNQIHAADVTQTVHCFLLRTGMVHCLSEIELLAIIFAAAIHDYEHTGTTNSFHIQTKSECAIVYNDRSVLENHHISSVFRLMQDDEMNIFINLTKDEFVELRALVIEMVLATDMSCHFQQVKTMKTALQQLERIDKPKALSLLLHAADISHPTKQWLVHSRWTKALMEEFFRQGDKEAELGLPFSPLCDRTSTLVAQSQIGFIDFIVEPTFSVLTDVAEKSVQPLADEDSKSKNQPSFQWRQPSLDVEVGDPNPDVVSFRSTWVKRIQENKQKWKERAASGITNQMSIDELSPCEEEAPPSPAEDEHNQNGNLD

[23] = Half life in ICR mouse at 10 mg/kg, iv measured upto 24 hrs by LC-MS/MS analysis; type: ADME, organism-based; details: in vivo
Mus musculus [24] = assay: Anti-psoriatic activity in IMQ-induced BALB/c psoriasis mouse model assessed as reduction in thickness score at 10 mg/kg, po for 7 days; type: functional, organism-based; details: time 7.0 day
RAW264.7 [25] = assay: Cytotoxicity against mouse RAW264.7 cells assessed as cell viability incubated for 48 hrs; type: toxicity, cell-based; details: raw264.7, 48 h
[26] = Toxicity in BALB/c mouse assessed as body weight loss at 62.5 mg as 2% ointment, TOP daily and measured upto 7 days; details: in vivo, topical_or_ocular, 168 h, time < 7 day
[27] = Stability in mouse liver microsomes assessed as half life measure upto 45 mins in presence of NADPH by LC-MS analysis; type: ADME, Microsome
Mus musculus [28] = assay: Anti-psoriatic activity in IMQ-induced BALB/c psoriasis mouse model assessed as reduction in total clinical score at 10 mg/kg, po for 7 days; type: functional, organism-based; details: time 7.0 day
Mus musculus [29] = species: Mus musculus; assay: Anti-psoriatic activity in IMQ-induced BALB/c psoriasis mouse model assessed as reduction in thickness score at 62.5 mg as 4% ointment, TOP daily and measured upto 7 days; type: functional, organism-based; details: time <= 7.0 day, DDE = dose-dependent effect
Mus musculus [30] = species: Mus musculus; assay: Anti-psoriatic activity in IMQ-induced BALB/c psoriasis mouse model assessed as reduction in scales score at 62.5 mg as 4% ointment, TOP daily and measured upto 7 days; type: functional, organism-based; details: time <= 7.0 day, DDE = dose-dependent effect
Mus musculus [31] = species: Mus musculus; assay: Anti-psoriatic activity in IMQ-induced BALB/c psoriasis mouse model assessed as reduction in epidermal cell proliferation at 62.5 mg as 4% ointment, TOP daily for 7 days by Ki67+ expression based immunohistochemistry analysis; type: functional, organism-based; details: time 7.0 day
[32] = target: cAMP and cAMP-inhibited cGMP 3',5'-cyclic phosphodiesterase 10A (Homo sapiens, UniProt Q9Y233); assay: Inhibition of PDE10A2 (449 to 770 residues) (unknown origin) expressed in Escherichia coli BL21 using [3H-GMP] or [3H-AMP] as substrate incubated for 15 mins by liquid scintillation counting method
Chain of cAMP and cAMP-inhibited cGMP 3',5'-cyclic phosphodiesterase 10A (Q9Y233 whole entry, the tested form may be a part): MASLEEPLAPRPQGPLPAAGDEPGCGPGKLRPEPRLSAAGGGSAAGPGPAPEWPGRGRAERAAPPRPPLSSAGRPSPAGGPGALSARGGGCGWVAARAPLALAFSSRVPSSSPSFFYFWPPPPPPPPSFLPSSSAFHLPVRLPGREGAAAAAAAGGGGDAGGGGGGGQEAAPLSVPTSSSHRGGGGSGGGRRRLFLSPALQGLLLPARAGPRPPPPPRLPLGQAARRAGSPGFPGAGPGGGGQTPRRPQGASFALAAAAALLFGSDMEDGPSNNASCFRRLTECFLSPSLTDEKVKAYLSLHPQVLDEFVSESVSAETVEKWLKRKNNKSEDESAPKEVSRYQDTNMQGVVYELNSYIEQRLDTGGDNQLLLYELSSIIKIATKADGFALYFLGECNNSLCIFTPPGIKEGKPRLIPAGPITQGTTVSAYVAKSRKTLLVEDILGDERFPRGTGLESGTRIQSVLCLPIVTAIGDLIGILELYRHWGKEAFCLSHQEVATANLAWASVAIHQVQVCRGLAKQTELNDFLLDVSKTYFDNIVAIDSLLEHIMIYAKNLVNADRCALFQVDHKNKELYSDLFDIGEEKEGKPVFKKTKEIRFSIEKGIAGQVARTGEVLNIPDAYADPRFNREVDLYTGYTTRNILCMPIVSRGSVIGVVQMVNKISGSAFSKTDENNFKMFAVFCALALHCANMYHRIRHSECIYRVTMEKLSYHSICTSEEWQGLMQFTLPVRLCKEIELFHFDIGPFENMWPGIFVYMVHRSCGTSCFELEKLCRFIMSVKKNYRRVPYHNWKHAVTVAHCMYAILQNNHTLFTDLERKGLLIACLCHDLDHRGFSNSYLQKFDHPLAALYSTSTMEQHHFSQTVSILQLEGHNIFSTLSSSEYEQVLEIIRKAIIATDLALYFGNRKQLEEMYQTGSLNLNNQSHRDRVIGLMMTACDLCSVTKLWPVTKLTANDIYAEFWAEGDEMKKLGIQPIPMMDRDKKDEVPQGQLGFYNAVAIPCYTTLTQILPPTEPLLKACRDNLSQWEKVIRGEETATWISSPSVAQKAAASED

[33] = AUC (0 to infinity) in ICR mouse at 30 mg/kg, po measured upto 24 hrs by LC-MS/MS analysis; type: ADME, organism-based; parameters: dose 30 mg/kg, time < 24 hrs, route po; details: in vivo

- solubility [1]: 10 µg/mL (≈ 28.1 µM)
- IC50 [2]: 0.82 µM
- half-life [3]: 2.9 min
- AUC(0-t) at 24 h [6]: 1130 ng·h/mL
- IC50 [10]: 2.13 µM
- half-life [11]: 109 min
- C0 at 24 h [14]: 20600 ng/mL
- IC50 [17]: > 10 µM
- bioavailability [18]: 14.4%
- IC50 [21]: > 10 µM
- IC50 [22]: > 10 µM
- half-life [23]: 55.2 min
- half-life [27]: 1.3 min
- IC50 [32]: 1.76 µM
- AUC(0-inf) [33]: 1200 ng·h/mL
SMILES: CCn1c(=O)c2c(c3ccc(C)nc31)O[C@@](C)(CCO)C[C@H]2C=C(C)C
- Activity (Mus musculus [4]): Active
- Activity [5]: Non-Toxic
- IC50 [7]: > 50 µM
- Activity (Mus musculus [8]): Active
- Activity (Mus musculus [9]): Active
- Activity (Mus musculus [12]): Dde
- Activity (Mus musculus [13]): Active
- Activity (Mus musculus [15]): Active
- Activity (Mus musculus [16]): Dde
- Activity (Mus musculus [19]): Active
- Activity (RAW264.7 [20]): Dde
- Activity (Mus musculus [24]): Active
- Activity (RAW264.7 [25]): Non-Toxic
- Activity [26]: Non-Toxic
- Activity (Mus musculus [28]): Active
- Activity (Mus musculus [29]): Dde
- Activity (Mus musculus [30]): Dde
- Activity (Mus musculus [31]): Active
